Literature values in patent publication US20090306103A1, “PYRIDONECARBOXAMIDE DERIVATIVES USEFUL IN TREATING HYPER-PROLIFERATIVE AND ANGIOGENESIS DISORDERS” (priority 2006, published 2009).
pIC50: −log10 of the molar value.

Experiments:
Bcr-Abl E255K mutant = details: read-out: IC50 against E255K mutant; biochemical assay
Bcr-Abl = details: greater potency than Imatinib
[1] = test system: Bcr-Abl Imanitib resistant mutations

Cc1cn(-c2cc(NC(=O)c3ccc(C)c(Nc4nccc(-c5cccnc5)n4)c3)cc(C(F)(F)F)c2)cn1 [AMN-107]
pIC50 (Bcr-Abl E255K mutant): 6.40 | potency of Bcr-Abl kinase inhibition relative to Imatinib (Bcr-Abl): 20 fold | inhibition of Imanitib resistant mutations [1]: inhib most Imanitib resistant mutations except for T315I
